Results on 1 compound are retold here after patent publication US20230181553A1, “COMPOSITION FOR HAIR IMPROVEMENT” (Dr. Cherry Inc., priority 2020, published 2023).

The subject of experiment [1] is CD163. In words: Gene expression in rat skin tissue after subcutaneous administration (qPCR). Format: in vivo, Wistar Rat. As to conditions: rat back skin, 2.5, 0.1 or 0.02 µg/portion, tissue after 8 weeks, relative to no PG administration. How it is done:
(§1) Next, change in gene expression in a tissue was checked. As a subject, 12 weeks old Wistar Rat (male) was used. Regarding a 2.5 µg/portion administration group, three regions were set on the back from the head to the tail, and each of these regions was divided into two regions on both left and right sides of the spine to set six regions on the back in total. In such an administration group, PG was administered to two portions around the center of each of the six regions. Specifically, in the 2.5 µg/portion administration group (n = 3), 2.5 µg (20 µL) of PG was administered per portion. Besides, regarding a 0.1 µg/portion administration group and a 0.02 µg/portion administration group, two regions were set from the head to the tail, and each of these regions was divided into two regions on both left and right sides of the spine, and thus, four regions in total were set on the back. In such an administration group, PG was administered to two portions around the center of each of the four regions. Specifically, in the 0.1 µg/portion administration group (n = 3), 0.1 µg (20 µL) of PG was administered per portion, and in the 0.02 µg/portion administration group (n = 2), 0.02 µg (20 µL) of PG was administered per portion. It is noted that a distance between the two portions was 1 cm. After 8 weeks, a tissue was collected with a 3 mm punch after shaving a portion on the center of the injected portion.
(§2) The collected tissue piece was frozen with liquid nitrogen, and stored at -80° C. […] For gene expression analysis by quantitative PCR, design and synthesis of a gene specific primer and a probe were entrusted to Integrated DNA Technologies, Inc. (Skokie, IL, USA), and an expression level of a target gene was analyzed with Prime Time Gene Expression Master Mix reagent (Integrated DNA Technologies, Inc., Skokie, IL, USA) and a Rotor-Gene Q PCR device (QIAGEN GmbH, Hilden, Germany). […]
Background: In qPCR the cycle at which signal appears reflects the starting amount.

The test system of a further experiment is CD34. Described as above. It counts as in vivo, Wistar Rat. Particulars: rat back skin, 2.5, 0.1 or 0.02 µg/portion, tissue after 8 weeks, relative to no PG administration. How it is done: as §1, §2
The subject of experiment [2] is CD68. The description is as above. As to conditions: rat back skin, 2.5, 0.1 or 0.02 µg/portion, tissue after 8 weeks, relative to no PG administration. It counts as in vivo, Wistar Rat. As to the method:
as §1, §2

The subject of the next experiment is PPARγ. Details: species or system Wistar Rat. As to conditions: rat, in vivo.
Experiment [3] concerns CD163. In words: Gene expression in human scalp tissue after pioglitazone treatment (qPCR). It counts as in vivo. As to conditions: whole scalp three times once every two months, before vs 6 months after first treatment. How it is done:
(§3) A human subject was also checked. A suspension of pioglitazone was prepared in the same manner as in Example 2, and the whole amount of the suspension was applied to the head of a human subject. The PG treatment was performed on the whole scalp three times at a frequency of once every two months. A tissue around the test site was collected with a 3 mm punch before the treatment and 2 months after performing the treatment three times (6 months after the first treatment). The collected tissue was halved, and one half was fixed with 10% formalin, and stored under refrigeration. The other half was immersed in RNA Stabilization Solution (RNAlater, Thermo Fisher Scientific, Lithuania), and the resultant was frozen in liquid nitrogen, and stored at -80° C. Thereafter, the gene expression analysis was performed in the same manner as the rat gene expression analysis.
(§4) A difference (ΔCt), in an expression level of mRNA, between ribosomal protein lateral stalk subunit P0 (Rp1P0) of a housekeeping gene and the target gene (average of Ct obtained from the qPCR reaction of each gene performed three times) was calculated, and in addition, a difference (ΔΔCt) in ΔCt between samples of the subject to be analyzed obtained before and after the treatment and a control (two persons not treated) was calculated. […]

For experiment [4], the system named is CD68. The description is as above. It counts as in vivo. Particulars: whole scalp three times once every two months, before vs 6 months after first treatment. As to the method: as §3, §4

Description for PPARγ: Next, change in gene expression in a tissue was checked. As a subject, 12 weeks old Wistar Rat (male) was used. Regarding a 2.5 µg/portion administration group, three regions were set on the back from the head to the tail, and each of these regions was divided into two regions on both left and right sides of the spine to set six regions on the back in total. In such an administration group, PG was administered to two portions around the center of each of the six regions. Specifically, in the 2.5 µg/portion administration group (n = 3), 2.5 µg (20 µL) of PG was administered per portion. Besides, regarding a 0.1 µg/portion administration group and a 0.02 µg/portion administration group, two regions were set from the head to the tail, and each of these regions was divided into two regions on both left and right sides of the spine, and thus, four regions in total were set on the back. […]

As for `CCc1ccc(CCOc2ccc(CC3SC(=O)NC3=O)cc2)nc1` (stereo not drawn) [pioglitazone], the “expression of CD163” value is recorded as “found to simultaneously increase” in the experiment on CD163 [1] and “found to increase” in the experiment on CD163 [3]. In the experiment on CD34, the “expression of CD34” value is on record as “found to increase”. In addition, the entries for the “expression of CD68” value in the experiment with CD68 [2] and with CD68 [4] were “found to simultaneously increase” and “found to increase”, respectively. The “expression of PPARγ” value in the experiment on PPARγ is “found to increase”.
